This note sets out measurements from PubChem BioAssay (NCI).

Test systems include A498 renal; DU-145 prostate; HCT-15 colon; HL-60(TB) leukemia; HOP-62 NSCLC; HS 578T breast; MCF7 breast; RPMI-8226 leukemia; UO-31 renal; CCRF-CEM leukemia.
Experiment in all cases: growth of human tumour cells (NCI), 48 h

The structures appear in SMILES notation.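 Briefly, cells in 96-well plates were exposed to five compound concentrations for 48 h, and endpoints were estimated by linear interpolation. GI50 marks 50% less growth. At the TGI there is no net growth.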

Regarding `Cc1ccc(S(=O)(=O)CC2(Br)CCc3ccccc3C2=O)cc1` (stereo not drawn), the TGI in the test on A498 renal is 95 µM; in the test with DU-145 prostate it was more than 100 µM; in the test on HCT-15 colon it was 42.5 µM; in the test with HL-60(TB) leukemia it was 87.3 µM; with HOP-62 NSCLC, more than 100 µM; in the test on HS 578T breast it was more than 100 µM. The TGI with MCF7 breast was 85.9 µM; with RPMI-8226 leukemia, more than 100 µM; with UO-31 renal, 50.5 µM.
On to `COc1ccc2nc3cc(Cl)ccc3c(Nc3cc(C(C)C)c(O)cc3C)c2c1`, for which the GI50 was 2.05 µM in the test on A498 renal; 2.08 µM in the test on CCRF-CEM leukemia; 2.48 µM in the test with DU-145 prostate; 1.7 µM in the test with HCT-15 colon; 1.31 µM in the test on HL-60(TB) leukemia; 1.91 µM with HOP-62 NSCLC. The GI50 in the test on HS 578T breast was 1.61 µM; in the test with MCF7 breast, 1.66 µM; in the test on RPMI-8226 leukemia, 0.663 µM; with UO-31 renal, 1.49 µM. Besides, the TGI in the test with A498 renal came to 6.58 µM; in the test on CCRF-CEM leukemia, 6.63 µM; in the test with DU-145 prostate it was 6.97 µM; with HCT-15 colon, 3.62 µM; with HOP-62 NSCLC it was 3.48 µM; with HS 578T breast it was 3.4 µM. In addition, the figures for the TGI in the test on MCF7 breast, with RPMI-8226 leukemia and in the test on UO-31 renal were 3.96 µM, 2.68 µM and 2.98 µM, respectively.
Turning to `O=C(/C=C/c1ccccc1)OCC1=C[C@@H](O)[C@@H]2C=CO[C@@H](OC3OC(CO)C(O)C(O)C3O)[C@H]12` (stereo partly drawn), the TGI in the test with A498 renal, in the test with CCRF-CEM leukemia, in the test with DU-145 prostate, with HCT-15 colon, with HOP-62 NSCLC and in the test on HS 578T breast was more than 100 µM throughout. Besides, the TGI in the test with MCF7 breast, with RPMI-8226 leukemia and in the test with UO-31 renal was more than 100 µM throughout.
Regarding `c1cc2c(c(NC3=NCCN3)c1)CCCC2`, the TGI with A498 renal, in the test on CCRF-CEM leukemia, in the test with DU-145 prostate, in the test with HCT-15 colon, in the test with HL-60(TB) leukemia and with HOP-62 NSCLC was more than 100 µM in each case. Besides, the TGI in the test on HS 578T breast, with MCF7 breast and with RPMI-8226 leukemia was more than 100 µM throughout.
In the case of `Cc1cn2c(/C=C3/C(=O)Nc4ccc(Cl)cc43)c(C)nc2s1`, the GI50 is 0.1 µM in the test on A498 renal; 0.84 µM with DU-145 prostate; less than 0.0403 µM with HCT-15 colon; 0.214 µM with HOP-62 NSCLC; 0.222 µM in the test with HS 578T breast; 1.57 µM with MCF7 breast. Further, the GI50 in the test with RPMI-8226 leukemia is 0.0137 µM; in the test with UO-31 renal, 15.6 µM. Further, the TGI is 0.645 µM with A498 renal; more than 39.3 µM with DU-145 prostate; more than 92.8 µM in the test on HCT-15 colon; 18.3 µM in the test with HOP-62 NSCLC; 0.852 µM in the test with HS 578T breast; more than 100 µM in the test with MCF7 breast. Besides, the TGI with RPMI-8226 leukemia and in the test on UO-31 renal was more than 100 µM in each case.
Take `COc1cc(NC(C)CCCN2C(=O)c3ccccc3C2=O)c2ncccc2c1OC` (stereo not drawn): the GI50 in the test on A498 renal is 34.4 µM; with CCRF-CEM leukemia it was 49.2 µM; with DU-145 prostate, 41.9 µM; in the test on HCT-15 colon it was 28.4 µM; with HL-60(TB) leukemia, 15.2 µM; in the test on HOP-62 NSCLC, 52.6 µM. Also, the figures for the GI50 with HS 578T breast, in the test with MCF7 breast and in the test with UO-31 renal were 24.5 µM, 10.9 µM and 36.7 µM, respectively. Moreover, the TGI in the test with A498 renal, in the test on CCRF-CEM leukemia, with DU-145 prostate, in the test on HCT-15 colon, with HL-60(TB) leukemia and in the test on HOP-62 NSCLC was more than 100 µM in each case. Also, the results for the TGI in the test with HS 578T breast, in the test with MCF7 breast and with UO-31 renal were 97.3 µM, more than 100 µM and more than 100 µM, respectively.
On to `O=C1C(Br)=CC2(C=C1Br)CCNc1c(O)c3c4c(c12)=NCCC=4C=N3`, for which the TGI with A498 renal was 3.56 µM; with CCRF-CEM leukemia it was 0.0734 µM; with DU-145 prostate, 1.49 µM; in the test on HCT-15 colon, 0.197 µM; in the test with HOP-62 NSCLC, 5.34 µM; in the test with HS 578T breast, 3.87 µM. The results for the TGI with MCF7 breast, in the test on RPMI-8226 leukemia and in the test with UO-31 renal were 0.0745 µM, 0.212 µM and 0.685 µM, respectively.
As to `N[C@@H](CSSC[C@H](N)C(=O)N1CCn2cc(-c3ccccc3)nc2[C@@H]1CC1CCCCC1)C(=O)N1CCn2cc(-c3ccccc3)nc2[C@@H]1CC1CCCCC1`, the GI50 is 2.68 µM in the test on A498 renal; 2.45 µM with DU-145 prostate; 1.82 µM in the test with HCT-15 colon; 2.13 µM with HL-60(TB) leukemia; 1.59 µM in the test on HOP-62 NSCLC; 3.1 µM in the test with HS 578T breast. Moreover, the GI50 is 1.42 µM in the test with MCF7 breast, 2.35 µM with RPMI-8226 leukemia and 1.69 µM in the test with UO-31 renal. Moreover, the TGI with A498 renal was 5.39 µM; in the test with DU-145 prostate, 8.65 µM; in the test on HCT-15 colon, 3.71 µM; with HL-60(TB) leukemia, more than 19.7 µM; with HOP-62 NSCLC it was 3.25 µM; in the test on HS 578T breast, more than 100 µM. The TGI in the test on MCF7 breast is 2.85 µM; in the test with RPMI-8226 leukemia, 5.68 µM; in the test with UO-31 renal, 3.61 µM.
With `C=C1C(=O)C2(C)OC2(C)C1C(=O)O` (stereo not drawn), the TGI in the test on CCRF-CEM leukemia, with DU-145 prostate, in the test on HCT-15 colon, in the test on HL-60(TB) leukemia, in the test on HOP-62 NSCLC and with HS 578T breast was more than 100 µM each time. For the same molecule, the TGI with MCF7 breast, in the test on RPMI-8226 leukemia and with UO-31 renal was more than 100 µM in each case.
`CC(C)COC(c1ccc2c(c1)OCO2)C(C)Br` (stereo not drawn): the TGI with A498 renal was more than 100 µM; in the test with DU-145 prostate, more than 100 µM; in the test on HCT-15 colon, 66.1 µM; in the test with HOP-62 NSCLC, 77.9 µM; in the test with HS 578T breast it was 64.6 µM; in the test on MCF7 breast, 86.9 µM. Besides, the TGI was 43 µM with RPMI-8226 leukemia and 67.5 µM in the test with UO-31 renal.
Regarding `COc1cc2c(cc1O)C1CC(CC3CCCCN31)OC(=O)/C=C\c1ccc(O)c-2c1` (stereo not drawn), the TGI is 30.6 µM with A498 renal; 90.5 µM with CCRF-CEM leukemia; 89.6 µM with DU-145 prostate; more than 100 µM with HCT-15 colon; 58.3 µM in the test with HL-60(TB) leukemia; 57.5 µM in the test on HS 578T breast. The TGI in the test with MCF7 breast came to 53.2 µM; in the test with RPMI-8226 leukemia, 89.8 µM; in the test on UO-31 renal it was 65 µM.
